The values below come from patent US10759781B2, “Substituted guanidine derivatives” (UBE INDUSTRIES, LTD., priority 2015, dated 2020).

The AUC is the area under the concentration-time curve, a measure of exposure. Higher therefore signals high exposure.

Each structure is given as a SMILES string.

One data set concerns the target T1, Rat Plasma VAP-1 (Rattus norvegicus, UniProt O08590).
T1 construct: from tissue; host or cells: plasma of SD male rats (7-12 weeks old) after oral dosing
T1 sequence (O08590 28-763 limits assumed): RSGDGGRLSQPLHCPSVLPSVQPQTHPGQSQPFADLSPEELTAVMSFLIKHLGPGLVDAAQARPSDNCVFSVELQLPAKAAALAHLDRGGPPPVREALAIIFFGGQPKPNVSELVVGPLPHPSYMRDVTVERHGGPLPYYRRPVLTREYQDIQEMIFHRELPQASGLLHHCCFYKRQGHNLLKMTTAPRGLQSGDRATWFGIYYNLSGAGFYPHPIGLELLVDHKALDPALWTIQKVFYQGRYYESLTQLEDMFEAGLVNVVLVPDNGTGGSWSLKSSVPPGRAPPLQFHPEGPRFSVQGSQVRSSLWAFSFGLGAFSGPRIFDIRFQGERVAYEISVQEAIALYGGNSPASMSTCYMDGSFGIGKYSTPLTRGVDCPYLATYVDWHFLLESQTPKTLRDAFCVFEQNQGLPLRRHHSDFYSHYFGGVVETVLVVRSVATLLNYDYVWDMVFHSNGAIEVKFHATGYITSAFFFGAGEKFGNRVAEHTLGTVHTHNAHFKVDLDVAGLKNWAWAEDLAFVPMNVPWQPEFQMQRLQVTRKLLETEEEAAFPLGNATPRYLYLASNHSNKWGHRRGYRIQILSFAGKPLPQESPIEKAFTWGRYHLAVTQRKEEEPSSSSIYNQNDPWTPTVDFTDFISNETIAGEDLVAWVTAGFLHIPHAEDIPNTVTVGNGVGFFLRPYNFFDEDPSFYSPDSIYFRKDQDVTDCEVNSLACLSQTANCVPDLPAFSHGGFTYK
As to the kind of experiment: (Ex vivo) rat plasma VAP-1 inhibition test after oral administration of the compound. In kind it is in vivo. The following applies: 3 hours after oral administration, SD male rats, read-out: inhibition ratio (plasma VAP-1, ex vivo). The method, boiled down: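 Male SD rats, 7–12 weeks, non-fasted, dosed orally at 0.3–10 mg/kg; jugular blood taken predose and 3, 8 and 24 h after dosing. Plasma incubated with 2.5 μM 14C-benzylamine for 3 h at 37 °C; extracted product counted by scintillation. Inhibition expressed relative to each animal's predose plasma activity.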

Data set [1] relates to Human normal hepatic sinusoid-like microvascular endothelial cells. In kind it is cell-based. The following applies: 2 days, 300 nM. The procedure:
The Cytotoxicity Inhibition Test in Human Normal Hepatic Sinusoid-Like Microvascular Endothelial Cells
(§1) Human normal hepatic sinusoid-like microvascular endothelial cells were plated at 6000 cells/well in a collagen-coated 96-well culture plate. After one day of culture, the medium at each well was completely removed by aspiration and replaced with 50 μL of the compound solution diluted with the basal medium. The basal medium containing 0.1% DMSO was added to control wells. Following, the plate was incubated in CO2 incubator for 30 minutes. Fifty microliter of 2 mM methylamine diluted with the basal medium was added (final concentration 1 mM) to each negative control well (0% inhibition) as well as the compound-containing well, and 50 μL of the basal medium was added to each positive control well (100% inhibition). The plate was incubated in CO2 incubator for 2 days. Ten microliter of CCK-8 was added to each well and the mixtures were incubated in a plate incubator at 37° C. for approximately 2 hours after stirring with a plate shaker. The absorbance of the mixtures at 450 nm was measured with a multiplate reader. The cytotoxicity inhibition ratio of the compound was calculated from the following equation. Inhibition ratio={[Average absorbance of the compound-containing wells]−[Average absorbance of negative control wells]}/{[Average absorbance of positive control wells]−[Average absorbance of negative control wells]}×100

In data set [2] the test system is Human normal glomerular microvascular endothelial cells. Format: cell-based. The following applies: 2 days, 100 nM. The procedure:
The Cytotoxicity Inhibition Test in Human Normal Glomerular Microvascular Endothelial Cells
as §1, with “glomerular” for “hepatic sinusoid-like”

The nature of the next data set: in vivo. Details: species or system SD rats. The following applies: SD, rat, po, 3 mg/kg. The procedure: Rat Pharmacokinetic (PK) Study (Concentration of Compound in Plasma after Oral Administration)
Seven to eight week old SD rats (weighing 180 to 250 g) were orally administered with a suspension of the compound in 0.5 W/V % methylcellulose 400 solution. Under anesthesia, the blood was collected from the jugular vein in EDTA tubes at 0.25, 0.5, 1, 2, 4, 6, 8 and 24 hours after the administration of the compound. The blood was centrifuged at 4° C. and 6000 g for 3 minutes to give plasma. Acetonitrile was added to the plasma, and the mixture was stirred with a shaker at 750 rpm for 3 minutes and was deproteinized by centrifugation at 3700 rpm for 2 minutes. Thus, the obtained sample was analyzed by LC/MS under the following conditions.
The concentration of the compound in the plasma at each blood sampling time was determined by an internal standard method, and AUC all (Area Under Curve) was calculated by a trapezoidal method.
The following LC and MS systems were used for measurement.
LC: CBM 30 series manufactured by Shimadzu Corporation
Column: Phenomenex Kinetex C18 (50×2.1 mm, 2.6 μm)
Column temperature: 40° C.
Mobile phase A: 0.1% aqueous formic acid solution, mobile phase B: 0.1% formic acid,
50% acetonitrile/methanol mixture
MS: 3200 manufactured by SCIEX

A further data set deals with T2, Human VAP-1 enzyme (Homo sapiens, UniProt Q16853).
T2 construct: purchased R&D Systems, Inc
T2 sequence (Q16853 1-763): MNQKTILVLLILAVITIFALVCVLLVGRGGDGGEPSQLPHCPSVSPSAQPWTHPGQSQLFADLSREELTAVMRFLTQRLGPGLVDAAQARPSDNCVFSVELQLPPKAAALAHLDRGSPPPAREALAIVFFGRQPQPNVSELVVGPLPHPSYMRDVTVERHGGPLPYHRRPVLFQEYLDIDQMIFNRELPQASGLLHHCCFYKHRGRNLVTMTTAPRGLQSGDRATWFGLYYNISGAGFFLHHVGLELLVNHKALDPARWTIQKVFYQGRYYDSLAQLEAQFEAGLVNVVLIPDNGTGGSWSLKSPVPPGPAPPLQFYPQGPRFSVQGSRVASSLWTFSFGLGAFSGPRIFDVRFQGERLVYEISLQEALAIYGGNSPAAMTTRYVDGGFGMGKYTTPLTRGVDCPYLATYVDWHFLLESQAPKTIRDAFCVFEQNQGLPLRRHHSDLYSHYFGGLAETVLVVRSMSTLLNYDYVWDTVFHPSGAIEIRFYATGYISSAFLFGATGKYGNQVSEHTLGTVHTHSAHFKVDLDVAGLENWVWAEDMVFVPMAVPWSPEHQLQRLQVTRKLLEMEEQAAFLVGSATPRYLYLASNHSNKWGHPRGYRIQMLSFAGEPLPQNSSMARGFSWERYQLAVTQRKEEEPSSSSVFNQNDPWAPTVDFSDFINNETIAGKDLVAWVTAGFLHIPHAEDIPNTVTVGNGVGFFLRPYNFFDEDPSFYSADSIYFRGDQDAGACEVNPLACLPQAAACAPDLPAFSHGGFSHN
As to the kind of experiment: Human VAP-1 enzyme inhibition test. In kind it is biochemical. The following applies: 1 h; compound 30 nM; 14C-benzylamine 100 μM; read-out: inhibition ratio (human VAP-1 enzyme). Summed up:
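Recombinant human VAP-1 pre-incubated 20 min at room temperature with compound in DMSO, then reacted with 14C-benzylamine (100 μM final) 1 h at 37 °C. Citric acid stop; oxidized product extracted into toluene/ethyl acetate and counted by liquid scintillation. Inhibition ratio relative to DMSO-only activity.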

As for `CON=C1CN(c2ncc(-c3cccc(COC(=O)NC(=N)N)c3F)cn2)C1` [Example 1, 2-Fluoro-3-{2-[3-(methoxyimino)azetidin-1-yl]pyrimidin-5-yl}benzyl carbamimidoylcarbamate], at Rat Plasma VAP-1, the inhibition in vivo at 0.3 mg/kg was at least 50%. The cytotoxicity inhibition ratio in data set [1] and in data set [2] was at least 50% throughout. The molecule further displayed an AUC in “in vivo” of at least 1000 ng·h/mL.
As for `CS(=O)(=O)N1CC(ON=C2CN(c3ncc(-c4cccc(COC(=O)NC(=N)N)c4F)cn3)C2)C1` [Example 141, 2-Fluoro-3-{2-[3-({[1-(methylsulfonyl)azetidin-3-yl]oxy}imino)azetidin-1-yl]pyrimidin-5-yl}benzyl carbamimidoylcarbamate], the inhibition at 0.03 µM at Human VAP-1 enzyme is at least 50%. Also, the inhibition in vivo at 0.3 mg/kg at Rat Plasma VAP-1 is at least 50%. Moreover, the cytotoxicity inhibition ratio in data set [1] and in data set [2] was at least 50% in each case.
`N=C(N)NC(=O)OCc1cccc(-c2cnc(N3CC(=NOC4COC4)C3)nc2)c1F` [Example 144, 2-Fluoro-3-(2-{3-[(oxetan-3-yloxy)imino]azetidin-1-yl}pyrimidin-5-yl)benzyl carbamimidoylcarbamate]: the inhibition at 0.03 µM on Human VAP-1 enzyme is at least 50%. Besides, at Rat Plasma VAP-1, the inhibition in vivo at 0.3 mg/kg was at least 50%. For the same molecule, the cytotoxicity inhibition ratio in data set [1] and in data set [2] was at least 50% in each case.
